Legend:
[1] = system: lyophilized O. anthropi IA cells; test: α-H-α-amino acid amide racemase activity of lyophilized O. anthropi IA cells; type: biochemical, Ochrobactrum anthropi IA; details: approximately 72 hours at 40° C., 10 times diluted reaction mixture
Experimental: O. anthropi IA cells were cultivated in Medium A containing DL-α-amino-ε-caprolactam (2 g/l) as sole nitrogen source. After incubation at 28° C. and 200 rpm for three days (OD620 nm=4.7), cells were harvested by centrifugation, washed in 20 mM HEPES-NaOH buffer of pH 7.7 and lyophilized.
The assay mixture consisted of 10 mM HEPES-NaOH buffer (pH 7.7) containing toluene (2,5 v/v %), pyridoxal-5-phosphate (20 μM), D- or L-leucine amide (2.5 m %) and in some cases EDTA (20 mM). Per assay 150 mg of lyophilized cells were used. Chemical blanks (with the assay mixture without the O. anthropi IA cells) were used as a negative control. All reaction mixtures (including the blanks) were incubated for approximately 72 hours at 40° C. before the reaction was stopped by the addition of 9 volumes of 1 M H3PO4. Finally, the reaction mixtures were analyzed by HPLC to determine the concentrations of D- and L-leucine amide and of D- and L-leucine. o-Phthaldehyde in combination with D-3-mercapto-2-methylpropionic acid was used in this HPLC method as a chiral reagent for the enantioseparation of these amino compounds (Duchateau, et al., J. Chromatogr. (1992) 623:237-245).
In a number of reactions EDTA was added to inhibit L- and/or D-specific amidase(s) present in the O. anthropi IA cells.
Without EDTA, amidases convert the substrate and/or product α-H-α-amino acid amides into α-H-α-amino acids thereby preventing direct detection of the other α-H-α-amino acid amide enantiomer as racemization product. […] Formation of L-leucine from D-leucine amide could not be detected in the chemical blank.

[2] = system: E. coli clone containing the O. anthropi IA α-H-α-amino acid amide racemase gene (pOa(1)PLV49B10); test: Confirmation of potential positive clone of the O. anthropi IA gene library; type: cell-based, Ochrobactrum anthropi IA; details: 70 mM substrate, 20 h at 30° C.
Experimental: Of all 32 potential positive clones identified in the screening, material from the masterplates was used to inoculate 3 ml of liquid screening medium containing 50 mg/l kanamycin. After growth for 2 days at 30° C., cells were collected by centrifuging 2 ml of these cell cultures. Then the cell pellets were washed four times in 25 mM Tris-HCl buffer, pH 7.5. Subsequently, the cell pellets were resuspended in 100 μl substrate solution containing 70 mM of D-phenylalanine amide, or D-leucine amide, or D-valine amide in 50 mM Tris-HCl, pH 7.5 and 1 mM MnCl2. After incubation for 20 h at 30° C., the reactions were stopped by the addition of 100 μl of 0.15 M HCl, after which the reaction mixtures were analyzed by the HPLC method described in Example 1.
This clone contained the O. anthropi IA α-H-α-amino acid amide racemase gene on its 7.7 kb plasmid. This was concluded from the fact that transformation of this plasmid into E. coli TOP10 cells inevitably led to recombinant cells that converted D-leucine amide into L-Leucine. […] The sequence of this gene is listed as nucleotides 98 to 1417 (including the TAA stopcodon) of SEQ ID NO:1 encoding the protein of SEQ ID: NO. 2 as presented infra.

[3] = system: E. coli DH10B/pOA(1)PLV49B10 cells containing the α-H-α-amino acid amide racemase gene from Ochrobactrum anthropi IA; test: Racemase activity test with D-leucine amide and whole E. coli cells (Example 5); type: cell-based; details: Strain A
Experimental: A single colony of E. coli DH10B containing plasmid pOA(1)PLV49B10 was transferred to LB medium with kanamycin (50 mg/l) to prepare a pre-culture. After overnight incubation at 28° C. and 200 rpm, this pre-culture was used to inoculated a flask with 500 ml of 2*TY medium (10 g/l Yeast extract, 16 g/l Tryptone, 5 g/l NaCl) containing kanamycin (50 mg/l). After overnight growth at 28° C. (OD620nm=4.4) and 200 rpm, cells were harvested by centrifugation (15 min. at 6,200×g, 4° C.), and washed with 50 mM HEPES-NaOH buffer of pH 7.7.
The cell pellets from both cultures were subsequently washed and resuspended in 25 ml of 50 mM HEPES-NaOH buffer, pH 7.7. Aliquots of 2 ml of both cell suspensions were centrifuged once more and the pellets were stored at −20° C. until execution of the activity tests described below. The remaining part of these cell suspensions was stored at −20° C. for use in Example 6.
To determine the activity of E. coli/pOA(1)PLV49B10 and the E. coli control, the above-mentioned cell pellets were thawed and resuspended to a total volume of 1 ml with 50 mM HEPES-NaOH buffer, pH 7.7. Then, reaction mixtures of 10 ml each were prepared containing 50 mM HEPES-NaOH buffer (pH 7.7), 10 μM pyridoxal-5-phosphate (PLP), 2.5 wt % of D-leucine amide, if applicable 20 mM of EDTA to suppress the E. coli amidase activity, and 0.5 ml of the E. coli/pOA(1)PLV49B10 and E. coli DH10B/pZErO-GFPuv-wrong-orientation cell suspensions or water (for chemical blanks). Reactions were started by the addition of the cells. Reaction mixtures were incubated at 30° C. and 175 rpm. Directly after addition of the cells (t=0 hours) and after 27 and 43 hours samples were taken in which the reaction was stopped by removal of the cells via centrifugation followed by 0.22 μM filtration. Finally, the filtered samples were stored at −20° C. until analysis by chiral HPLC as described below: • column: Sumichiral OA5000 from Sumika (150×4.6 mm I.D., 5μ)+guard column • eluent: 85 v/v % 2 mM CuSO4+15 v/v % methanol • flow: 1.0 ml/min. • column temp.: 40° C. • inj. volume: 5 μl • detection: fluorescence detection after post-column reaction with o-phthalaldehyde and 2-mercaptoethanol (wavelength ex=338 nm and em>420 nm)

[4] = with 20 mM EDTA, incubation time 27 h
[5] = with 20 mM EDTA, incubation time 43 h
[6] = without 20 mM EDTA, incubation time 27 h
[7] = without 20 mM EDTA, incubation time 43 h

CC(C)C[C@@H](N)C(N)=O [D-leucine amide]
D-leucine ([1]; with EDTA (20 mM)): 0.007 m % | D-leucine amide ([1]; with EDTA (20 mM)): 0.24 m % | L-leucine ([1]; with EDTA (20 mM)): 0.008 m % | L-leucine amide ([1]; with EDTA (20 mM)): 0.032 m % | D-leucine ([1]; without EDTA): 0.015 m % | D-leucine amide ([1]; without EDTA): 0.22 m % | L-leucine ([1]; without EDTA): 0.044 m % | L-leucine amide ([1]; without EDTA): <0.001 m % | formation of L-leucine from D-leucine amide [2]: significant formation of L-leucine | D-leucine amide ([3]; with 20 mM EDTA, incubation time 0 h): 2.61 wt % | D-leucine [3, 4]: 0.003 wt % | D-leucine amide [3, 4]: 1.77 wt % | L-leucine [3, 4]: 0.313 wt % | L-leucine amide [3, 4]: 0.555 wt % | D-leucine [3, 5]: 0.006 wt % | D-leucine amide [3, 5]: 1.59 wt % | L-leucine [3, 5]: 0.345 wt % | L-leucine amide [3, 5]: 0.772 wt % | D-leucine amide ([3]; without 20 mM EDTA, incubation time 0 h): 2.63 wt % | D-leucine [3, 6]: 0.009 wt % | D-leucine amide [3, 6]: 1.03 wt % | L-leucine [3, 6]: 1.71 wt % | L-leucine amide [3, 6]: 0.170 wt % | D-leucine [3, 7]: 0.017 wt % | D-leucine amide [3, 7]: 0.512 wt % | L-leucine [3, 7]: 2.12 wt % | L-leucine amide [3, 7]: 0.063 wt %
